≈ marks a conversion by molar mass, not a printed value. Read-outs that look alike come from different tables or passages of the source.
What was measured:
Type in all cases: cell-based
[1] = test system: P. Aeruginosa (G-) ATCC 27853; assay: In vitro antibacterial activity, standard microdilution MIC assay; conditions: P. Aeruginosa (G-) ATCC 27853, penicillin resistant
[2] = test system: S. Aureus (G+) ATCC 27660; assay: as above; conditions: S. Aureus (G+) ATCC 27660, penicillin resistant
[3] = test system: S. Aureus (G+) ATCC 25923; assay: as above
[4] = test system: S. Aureus (G+) ATCC 12715; assay: as above; conditions: S. Aureus (G+) ATCC 12715, penicillin resistant
[5] = test system: Klebsiella (G-) Pneumoniae ATCC; assay: as above
Experimental: The in vitro antibacterial activity of several tetraalkyl ethenylidenebisphosphonates, fosfomycin and Penicillin G were tested against various gram-positive and gram-negative bacteria using the standard microdilution Minimum Inhibitory Concentration (MIC) assay as disclosed in Laboratory Procedures in Clinical Microbiology (John A. Washington, editor), 281-311 (1985), incorporated herein by reference.

[6] = test system: Clostridium (G+) perfringens ATCC 3624; assay: microbe, parasite or virus in culture
[7] = test system: Streptococcus (G+) mutans, clinical isolate (first listed); assay: In vitro antibacterial activity, standard microdilution MIC assay
[8] = test system: Streptococcus (G+) mutans, clinical isolate (second listed); assay: as above
[9] = test system: Streptococcus (G+) mutans, clinical isolate (third listed); assay: as above
[10] = test system: gram-positive microorganisms; assay: In vitro antibacterial activity (MIC), comparison with fosfomycin
[11] = Pseudomonas aeruginosa, ATCC27853, read-out: MIC
[12] = Staphylococcus aureus, ATCC27660, read-out: MIC
[13] = Staphylococcus aureus, ATCC25923, read-out: MIC
[14] = Staphylococcus aureus, ATCC12715, read-out: MIC

| SMILES | MIC [1] | MIC [2] | MIC [3] [µg/mL] | MIC [4] | MIC [5] [µg/mL] | MIC [1, 11] [µg/mL] | MIC [2, 12] [µg/mL] | MIC [3, 13] [µg/mL] | MIC [4, 14] [µg/mL] | MIC [6] [µg/mL] | MIC ([6]; Clostridium, ATCC3624) [µg/mL] | MIC [7] [µg/mL] | MIC [8] [µg/mL] | MIC [9] [µg/mL] | antibacterial efficacy against gram-positive microorganisms compared with fosfomycin [10] |
| --- | --- | --- | --- | --- | --- | --- | --- | --- | --- | --- | --- | --- | --- | --- | --- |
| C=C(P(=O)(OC)OC)P(=O)(OC)OC [A, Tetramethyl ethenylidenebisphosphonate] | 6,300 μg/ml | 1,200 μg/ml | 430 (≈ 1760 µM) | 1,200 μg/ml | 405 (≈ 1660 µM) |  |  |  |  |  |  |  |  |  |  |
| CC1(C)S[C@@H]2[C@H](NC(=O)Cc3ccccc3)C(=O)N2[C@H]1C(=O)O [E, Penicillin G, reference compound] |  |  |  |  |  | 24000 (≈ 71800 µM) | 25000 (≈ 74800 µM) | 25 (≈ 74.8 µM) | 19000 (≈ 56800 µM) |  |  |  |  |  |  |
| C[C@@H]1O[C@@H]1P(=O)(O)O [D, Fosfomycin, reference compound] |  |  |  |  |  | 31 (≈ 225 µM) | 180 (≈ 1300 µM) | 56 (≈ 406 µM) | 72 (≈ 522 µM) |  |  |  |  |  |  |
| C=C(P(=O)(OCC)OCC)P(=O)(OCC)OCC [B, Tetraethyl ethenylidenebisphosphonate] | 25,000 μg/ml | 160 µg/mL (≈ 533 µM) | 110 (≈ 366 µM) | 180 µg/mL (≈ 600 µM) |  |  |  |  |  | 52 (≈ 173 µM) |  |  |  |  |  |
| C=C(P(=O)(OCCCC)OCCCC)P(=O)(OCCCC)OCCCC [C, Tetrabutyl ethenylidenebisphosphonate] |  |  |  |  |  | 25000 (≈ 60600 µM) | 6.5 (≈ 15.8 µM) | 4.5 (≈ 10.9 µM) | 6.5 (≈ 15.8 µM) |  | 2.1 (≈ 5.09 µM) | 1.2 (≈ 2.91 µM) | 11 (≈ 26.7 µM) | 11 (≈ 26.7 µM) | superior to fosfomycin |
